{"source": "patent US11713338B2", "about": "“Cyclic peptides multimers targeting α-4-β-7 integrin” (priority 2016, dated 2023)", "data": [{"target": "T1, recombinant integrin α4β7 (Homo sapiens, UniProt P13612+P26010, DEL724-798)", "T1 construct": "purchased R&D Systems 5397-A3-050", "T1 sequence (P13612 34-970 limits assumed)": "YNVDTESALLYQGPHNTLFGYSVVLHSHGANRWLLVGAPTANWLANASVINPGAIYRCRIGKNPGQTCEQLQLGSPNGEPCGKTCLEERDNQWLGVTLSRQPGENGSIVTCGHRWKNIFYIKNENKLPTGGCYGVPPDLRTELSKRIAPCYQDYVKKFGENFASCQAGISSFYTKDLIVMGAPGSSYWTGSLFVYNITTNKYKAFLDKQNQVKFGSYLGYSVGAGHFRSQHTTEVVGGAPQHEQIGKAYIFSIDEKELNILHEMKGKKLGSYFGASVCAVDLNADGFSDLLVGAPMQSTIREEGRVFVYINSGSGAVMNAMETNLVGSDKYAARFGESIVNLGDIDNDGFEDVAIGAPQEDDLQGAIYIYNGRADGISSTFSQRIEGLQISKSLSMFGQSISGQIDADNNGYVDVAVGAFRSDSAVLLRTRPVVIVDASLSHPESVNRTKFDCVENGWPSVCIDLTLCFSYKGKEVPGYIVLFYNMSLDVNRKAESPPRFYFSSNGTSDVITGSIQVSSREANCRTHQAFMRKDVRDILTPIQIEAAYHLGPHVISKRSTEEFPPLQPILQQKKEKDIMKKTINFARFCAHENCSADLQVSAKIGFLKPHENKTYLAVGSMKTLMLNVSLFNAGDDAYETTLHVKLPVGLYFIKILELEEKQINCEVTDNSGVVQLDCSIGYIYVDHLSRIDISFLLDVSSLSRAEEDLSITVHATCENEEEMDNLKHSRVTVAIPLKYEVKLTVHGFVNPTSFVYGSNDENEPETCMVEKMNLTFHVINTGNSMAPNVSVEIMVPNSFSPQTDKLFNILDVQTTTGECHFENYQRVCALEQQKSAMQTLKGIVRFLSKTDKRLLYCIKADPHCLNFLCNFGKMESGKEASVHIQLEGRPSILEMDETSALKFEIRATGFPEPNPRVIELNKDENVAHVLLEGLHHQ", "T1 sequence (P26010 20-723 limits assumed)": "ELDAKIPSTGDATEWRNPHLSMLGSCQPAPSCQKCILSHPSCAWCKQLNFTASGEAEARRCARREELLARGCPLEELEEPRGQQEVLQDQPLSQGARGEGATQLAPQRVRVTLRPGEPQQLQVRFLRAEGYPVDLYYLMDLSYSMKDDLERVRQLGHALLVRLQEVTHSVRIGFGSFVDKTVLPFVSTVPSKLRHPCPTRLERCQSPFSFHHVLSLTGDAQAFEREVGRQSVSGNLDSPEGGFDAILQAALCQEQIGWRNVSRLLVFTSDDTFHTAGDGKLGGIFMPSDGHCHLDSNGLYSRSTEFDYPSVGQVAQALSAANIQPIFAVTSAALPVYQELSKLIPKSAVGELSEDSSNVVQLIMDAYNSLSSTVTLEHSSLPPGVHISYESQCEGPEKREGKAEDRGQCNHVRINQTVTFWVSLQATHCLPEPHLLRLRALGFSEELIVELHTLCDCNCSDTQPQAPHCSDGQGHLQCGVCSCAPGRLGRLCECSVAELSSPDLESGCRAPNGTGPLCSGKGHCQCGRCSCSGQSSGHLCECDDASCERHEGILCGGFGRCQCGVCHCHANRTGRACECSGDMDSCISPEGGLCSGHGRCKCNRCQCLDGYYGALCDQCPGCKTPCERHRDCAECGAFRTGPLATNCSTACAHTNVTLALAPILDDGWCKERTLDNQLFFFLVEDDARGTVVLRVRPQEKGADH", "assay": "Integrin α4β7—MAdCAM-1 ELISA competition assay", "assay_type": "binding", "settings": "read-out: ELISA α4β7 Assay IC50", "units": {"IC50": "nM"}, "values": [{"smiles": "CC(C)C[C@@H]1NC(=O)c2ccc(-c3ccc(N4CCN(C(=O)COCC(=O)N5CCN(c6ccc(-c7ccc8cc7CNC(=O)[C@@H]7CCCN7[C@H](C(=O)NC(C)(C)C)[C@H](C)NC(=O)[C@H]([C@@H](C)O)NC(=O)[C@H](CC(=O)O)NC(=O)[C@H](CC(C)C)NC8=O)cc6)CC5)CC4)cc3)c(c2)CNC(=O)[C@@H]2CCCN2[C@H](C(=O)NC(C)(C)C)[C@H](C)NC(=O)[C@H]([C@@H](C)O)NC(=O)[C@H](CC(=O)O)NC1=O", "note": "[Compound 390]", "IC50": 8.3}, {"smiles": "CC(C)C[C@@H]1NC(=O)c2ccc(-c3ccc(N4CCN(C(=O)CCC(=O)N5CCN(c6ccc(-c7ccc8cc7CNC(=O)[C@@H]7CCCN7[C@H](C(=O)NC(C)(C)C)[C@H](C)NC(=O)[C@H]([C@@H](C)O)NC(=O)[C@H](CC(=O)O)NC(=O)[C@H](CC(C)C)NC8=O)cc6)CC5)CC4)cc3)c(c2)CNC(=O)[C@@H]2CCCN2[C@H](C(=O)NC(C)(C)C)[C@H](C)NC(=O)[C@H]([C@@H](C)O)NC(=O)[C@H](CC(=O)O)NC1=O", "note": "[Compound 484]", "IC50": 5.6}, {"smiles": "CC(C)C[C@@H]1NC(=O)C[C@H](CCCCN)N(C)C(=O)[C@H](CCCCNC(=O)CCCCCCCC(=O)NCCCC[C@@H]2NC(=O)[C@@H]3CCCN3[C@H](C(=O)NC(C)(C)C)[C@H](C)NC(=O)[C@H]([C@@H](C)O)NC(=O)[C@H](CC(=O)O)NC(=O)[C@H](CC(C)C)NC(=O)C[C@H](CCCCN)N(C)C2=O)NC(=O)[C@@H]2CCCN2[C@H](C(=O)NC(C)(C)C)[C@H](C)NC(=O)[C@H]([C@@H](C)O)NC(=O)[C@H](CC(=O)O)NC1=O", "note": "[Compound 533]", "IC50": 5}, {"smiles": "CC(C)C[C@@H]1NC(=O)c2ccc(-c3ccc(N4CCN(C(=O)c5cc(-c6ccccc6)c(C(=O)N6CCN(c7ccc(-c8ccc9cc8CNC(=O)[C@@H]8CCCN8[C@H](C(=O)NC(C)(C)C)[C@H](C)NC(=O)[C@H]([C@@H](C)O)NC(=O)[C@H](CC(=O)O)NC(=O)[C@H](CC(C)C)NC9=O)cc7)CC6)cc5-c5ccccc5)CC4)cc3)c(c2)CNC(=O)[C@@H]2CCCN2[C@H](C(=O)NC(C)(C)C)[C@H](C)NC(=O)[C@H]([C@@H](C)O)NC(=O)[C@H](CC(=O)O)NC1=O", "note": "[Compound 469]", "IC50": 36}, {"smiles": "CC(C)C[C@@H]1NC(=O)c2ccc(-c3ccc(N4CCN(C(=O)[C@H](CCCCNC(=O)CCCCCC(=O)NCCCC[C@H](NC(=O)OCc5ccccc5)C(=O)N5CCN(c6ccc(-c7ccc8cc7CNC(=O)[C@@H]7CCCN7[C@H](C(=O)NC(C)(C)C)[C@H](C)NC(=O)[C@H]([C@@H](C)O)NC(=O)[C@H](CC(=O)O)NC(=O)[C@H](CC(C)C)NC8=O)cc6)CC5)NC(=O)OCc5ccccc5)CC4)cc3)c(c2)CNC(=O)[C@@H]2CCCN2[C@H](C(=O)NC(C)(C)C)[C@H](C)NC(=O)[C@H]([C@@H](C)O)NC(=O)[C@H](CC(=O)O)NC1=O", "note": "[Compound 498]", "IC50": 12}, {"smiles": "CC(C)C[C@@H]1NC(=O)C[C@H](CCCCN)N(C)C(=O)[C@H](CCCCNC(=O)CCCCCC(=O)NCCCC[C@@H]2NC(=O)[C@@H]3CCCN3[C@H](C(=O)NC(C)(C)C)[C@H](C)NC(=O)[C@H]([C@@H](C)O)NC(=O)[C@H](CC(=O)O)NC(=O)[C@H](CC(C)C)NC(=O)C[C@H](CCCCN)N(C)C2=O)NC(=O)[C@@H]2CCCN2[C@H](C(=O)NC(C)(C)C)[C@H](C)NC(=O)[C@H]([C@@H](C)O)NC(=O)[C@H](CC(=O)O)NC1=O", "note": "[Compound 532]", "IC50": 6.1}, {"smiles": "CC(C)C[C@@H]1NC(=O)c2ccc(-c3ccc(N4CCN(C(=O)C56CC7CC(C5)CC(C(=O)N5CCN(c8ccc(-c9ccc%10cc9CNC(=O)[C@@H]9CCCN9[C@H](C(=O)NC(C)(C)C)[C@H](C)NC(=O)[C@H]([C@@H](C)O)NC(=O)[C@H](CC(=O)O)NC(=O)[C@H](CC(C)C)NC%10=O)cc8)CC5)(C7)C6)CC4)cc3)c(c2)CNC(=O)[C@@H]2CCCN2[C@H](C(=O)NC(C)(C)C)[C@H](C)NC(=O)[C@H]([C@@H](C)O)NC(=O)[C@H](CC(=O)O)NC1=O", "note": "[Compound 460]", "IC50": 14}, {"smiles": "CC(C)C[C@@H]1NC(=O)c2ccc(-c3ccc(N4CCN(Cc5cc(CN6CCN(c7ccc(-c8ccc9cc8CNC(=O)[C@@H]8CCCN8[C@H](C(=O)NC(C)(C)C)[C@H](C)NC(=O)[C@H]([C@@H](C)O)NC(=O)[C@H](CC(=O)O)NC(=O)[C@H](CC(C)C)NC9=O)cc7)CC6)cc(CN6CCN(c7ccc(-c8ccc9cc8CNC(=O)[C@@H]8CCCN8[C@H](C(=O)NC(C)(C)C)[C@H](C)NC(=O)[C@H]([C@@H](C)O)NC(=O)[C@H](CC(=O)O)NC(=O)[C@H](CC(C)C)NC9=O)cc7)CC6)c5)CC4)cc3)c(c2)CNC(=O)[C@@H]2CCCN2[C@H](C(=O)NC(C)(C)C)[C@H](C)NC(=O)[C@H]([C@@H](C)O)NC(=O)[C@H](CC(=O)O)NC1=O", "note": "[Compound 518]", "IC50": 36}, {"smiles": "CC(C)C[C@@H]1NC(=O)c2ccc(-c3ccc(N4CCN(CC(=O)N5CCN(c6ccc(-c7ccc8cc7CNC(=O)[C@@H]7CCCN7[C@H](C(=O)NC(C)(C)C)[C@H](C)NC(=O)[C@H]([C@@H](C)O)NC(=O)[C@H](CC(=O)O)NC(=O)[C@H](CC(C)C)NC8=O)cc6)CC5)CC4)cc3)c(c2)CNC(=O)[C@@H]2CCCN2[C@H](C(=O)NC(C)(C)C)[C@H](C)NC(=O)[C@H]([C@@H](C)O)NC(=O)[C@H](CC(=O)O)NC1=O", "note": "[Compound 481]", "IC50": 7.1}, {"smiles": "CC(C)C[C@@H]1NC(=O)C[C@H](CCCCN)N(C)C(=O)[C@H](CCCCNC(=O)CCOCCOCCOCCOCCOCCOCCOCCC(=O)NCCCC[C@@H]2NC(=O)[C@@H]3CCCN3[C@H](C(=O)NC(C)(C)C)[C@H](C)NC(=O)[C@H]([C@@H](C)O)NC(=O)[C@H](CC(=O)O)NC(=O)[C@H](CC(C)C)NC(=O)C[C@H](CCCCN)N(C)C2=O)NC(=O)[C@@H]2CCCN2[C@H](C(=O)NC(C)(C)C)[C@H](C)NC(=O)[C@H]([C@@H](C)O)NC(=O)[C@H](CC(=O)O)NC1=O", "note": "[Compound 536]", "IC50": 9.5}, {"smiles": "CC(C)C[C@@H]1NC(=O)c2ccc(-c3ccc(N4CCN(C(=O)c5ccc(-c6cccc(C(=O)N7CCN(c8ccc(-c9ccc%10cc9CNC(=O)[C@@H]9CCCN9[C@H](C(=O)NC(C)(C)C)[C@H](C)NC(=O)[C@H]([C@@H](C)O)NC(=O)[C@H](CC(=O)O)NC(=O)[C@H](CC(C)C)NC%10=O)cc8)CC7)n6)nc5)CC4)cc3)c(c2)CNC(=O)[C@@H]2CCCN2[C@H](C(=O)NC(C)(C)C)[C@H](C)NC(=O)[C@H]([C@@H](C)O)NC(=O)[C@H](CC(=O)O)NC1=O", "note": "[Compound 466]", "IC50": 14}, {"smiles": "CC(C)C[C@@H]1NC(=O)c2ccc(-c3ccc(N4CCN(C(=O)c5ccc(C(=O)N6CCN(c7ccc(-c8ccc9cc8CNC(=O)[C@@H]8CCCN8[C@H](C(=O)NC(C)(C)C)[C@H](C)NC(=O)[C@H]([C@@H](C)O)NC(=O)[C@H](CC(=O)O)NC(=O)[C@H](CC(C)C)NC9=O)cc7)CC6)s5)CC4)cc3)c(c2)CNC(=O)[C@@H]2CCCN2[C@H](C(=O)NC(C)(C)C)[C@H](C)NC(=O)[C@H]([C@@H](C)O)NC(=O)[C@H](CC(=O)O)NC1=O", "note": "[Compound 470]", "IC50": 5.4}, {"smiles": "CC(C)C[C@@H]1NC(=O)c2ccc(-c3ccc(N4CCN(C(=O)[C@H]5CCC[C@H]5C(=O)N5CCN(c6ccc(-c7ccc8cc7CNC(=O)[C@@H]7CCCN7[C@H](C(=O)NC(C)(C)C)[C@H](C)NC(=O)[C@H]([C@@H](C)O)NC(=O)[C@H](CC(=O)O)NC(=O)[C@H](CC(C)C)NC8=O)cc6)CC5)CC4)cc3)c(c2)CNC(=O)[C@@H]2CCCN2[C@H](C(=O)NC(C)(C)C)[C@H](C)NC(=O)[C@H]([C@@H](C)O)NC(=O)[C@H](CC(=O)O)NC1=O", "note": "[Compound 458]", "IC50": 6.4}]}]}
